Columns and labels:
adjuvant arthritis [1] = experiment: Adjuvant arthritis induced with M. tuberculosis; assay type: in vivo, Lewis rats; conditions: for Adjuvant arthritis maximum clinical score: scale 0-16
[2] = Partial thromboplastin time in human volunteers; assay type: in vivo; conditions: 3 mg (500 units) per day
Experimental: The effective dose of heparin, 3 mg (500 units) per day, was computed from the optimal dose per weight in mice and rats and corrected for surface area. […] (not shown).

DTH reaction = experiment: In situ DTH: I-LNC injected directly into the ears; assay type: in vivo, mice; conditions: heparin 5 u.g, I-LNC intradermally into ears, 24 h
Experimental: If inhibition of heparanase and heparanase-dependent traffic is the major mechanism by which low dose heparin suppresses DTH, then one might be able to bypass the inhibition of DTH by bypassing the need for vascular traffic of sensitized T lymphocytes. Accordingly we treated recipient mice with an inhibitory dose (5 μg) of heparin, and then injected the donor I-LNC directly into the ears, rather than intravenously. Table 7 illustrates that putting the sensitized lymphocytes in situ bypassed the inhibitory effect on the DTH of 5 μg of heparin. Thus low dose heparin treatment appeared to inhibit DTH only when the DTH-mediat lymphocytes had to make their way to the site of the antigen by way of the circulation.
I-LNC were obtained from BALB/c mice sensitized to OX 5 days earlier. The I-LNC were centrifuged, resuspended in RPMI medium and injected intradermally (3×10^6 cells/20 μ/l) into the dorsal surface of the ears of naive recipient mice. The ears were challenged with OX immediately after cell transfer. The magnitude of DTH ear swelling was determined 24 h later.

[3] = rat, in vivo, 10 mg/kg
renal allograft = conditions: subanticoagulant s.c. doses, 5000 U daily; cited from earlier work
adjuvant arthritis [4] = conditions: 1000 U/rat; cited from earlier work
[5] = system: experimental autoimmune encephalomyelitis (EAE); experiment: Experimental autoimmune encephalomyelitis (EAE) produced by anti-BP T lymphocytes; assay type: in vivo, Lewis rats; conditions: for Day of onset of EAE / Duration of EAE / % incidence of EAE / Clinical score of EAE: 0.1 mg/kg daily; for % incidence of EAE: None 100; for Clinical score of EAE: scale 1-4, None 3.0
Description: EAE is an experimental autoimmune disease with some features reminiscent of multiple sclerosis in humans. The disease is caused by T lymphocytes immunized to the basic protein (BP) of the central nervous system myelin. To test the effect of heparins on the ability of T lymphocytes to cause autoimmune disease, we used T lymphocytes sensitized against BP, either as T cell lines (Cohen, I. R. Experimental autoimmune encephalomyelitis: Pathogenesis and prevention. In: Immunoregulatory Processes in Multiple Sclerosis and Experimental Allergic Encephalomyelitis. A. A. Vandenbark and J. C. M. Raus, eds. Elsevier Biomedical Res. Amsterdam. 7:91-125 (1985)) or as populations of lymph node cells from BP immunized rats.
EAE was produced by inoculating Lewis rats with a T cell line of anti-BP T lymphocytes (10^6 cells) with anti-BP primed lymph node cells (10^7 cells) intravenously (Cohen, I. R. Experimental autoimmune encephalomyelitis: Pathogenesis and prevention. In: Immunoregulatory Processes in Multiple Sclerosis and Experimental Allergic Encephalomyelitis. A. A. Vandenbark and J. C. M. Raus, eds. Elsevier Biomedical Res. Amsterdam. 7:91-125 (1985)) One day before inoculation and daily for 10 days, the rats received either saline or the heparins.

heparanase = experiment: Heparanase activity of I-LNC from heparin-treated OX-immunized mice; conditions: 5 μg per injection in vivo, I-LNC incubated 48 h with labeled ECM
Experimental: Mice were immunized with OX on days 0 and 5. Some of the mice were treated with heparin (5 μg or 25 μg per injection) 18 h before and 2, 10 and 20 h after the day 5 immunization with OX. On day 6, the I-LNC were removed and tested for heparanase activity by incubation for 48 h with labeled ECM. Heparan sulfate degradation products are shown for I-LNC from the following groups of mice: No heparin; 25 μg heparin X; 5 μg heparin-0. The LNC of control mice not immunized to OX had no heparanase activity (not shown).
To learn if these effects were associated with inhibition of endogenous heparanase, we treated mice with high (25 μg) or low (5 μg) doses of heparin, sensitized them to OX and tested their I-LNC for heparanase activity in vitro. […] Thus, treatment with 5 μg of heparin in vivo caused a substantial decrease of enzyme activity in sensitized lymphocytes.

skin allografts = experiment: Skin allograft survival (SJL/J skin on (BALB/c×C57BL/6)F1 mice); assay type: in vivo; conditions: 0.05 mg/kg daily
Experimental: FIG. 1. Treatment with heparin (0.05 mg/kg) prevents rejection of skin allografts. Mice of hybrid strain (BALB/c×C57BL/6)F1 were grafted with skin from allogeneic SJL/J mice. The mice (20 per group) were treated daily with subcutaneous injections of saline (squares) or with heparin ("Leo", 0.05 mg/kg; diamonds) and scored for skin graft survival. Median survival for the control group was 10 days while that for the heparin treated group was 24 days.
FIG. 2. Treatment with N-desulfated, N-acetylated heparin (10 mg/kg) prevents rejection of skin allografts. Mice were grafted as described for FIG. 1 and treated daily with saline (squares) or N-desulfated, N-acetylated heparin (10 mg/kg; diamonds). The median survival of the skin allograft in the control group was 10 days while that in the treated group was 20 days.
The median survival time of the skin grafts on control mice treated with saline was […] while that on mice treated with 0.05 mg/kg daily of heparin was 26 days with maximal survival to 32 days.

rheumatoid arthritis = experiment: Treatment of patients with rheumatoid arthritis; assay type: in vivo, human; conditions: about 300-500 units daily for 1 month, three patients
Description: As DTH reactions to self antigens are involved in autoimmune diseases, we have begun to test low dose heparin (about 300-500 units daily) in patients with rheumatoid arthritis.

lymphocytes = conditions: 17-35 mg/kg/rat; cited from earlier work
DTH skin response = conditions: human, in vivo
[6] = 0.001 mg s.c. once daily for 5 days from day 9
[7] = 0.005 mg s.c. once daily for 5 days from day 9
[8] = 0.01 mg s.c. once daily for 5 days from day 9
[9] = 0.02 mg s.c. once daily for 5 days from day 9

heparin
Adjuvant arthritis duration (adjuvant arthritis [1]; [6]): 20 days
Adjuvant arthritis maximum clinical score (adjuvant arthritis [1]; [6]): 6
Adjuvant arthritis duration (adjuvant arthritis [1]; [7]): 16 days
Adjuvant arthritis maximum clinical score (adjuvant arthritis [1]; [7]): 4
Adjuvant arthritis duration (adjuvant arthritis [1]; [8]): 15 days
Adjuvant arthritis maximum clinical score (adjuvant arthritis [1]; [8]): 5
Adjuvant arthritis duration (adjuvant arthritis [1]; [9]): 8 days
Adjuvant arthritis maximum clinical score (adjuvant arthritis [1]; [9]): 2
Adjuvant arthritis duration (adjuvant arthritis [1]; 0.04 mg s.c. once daily for 5 days from day 9, dose 0: >20): > 20 days
Adjuvant arthritis maximum clinical score (adjuvant arthritis [1]; 0.04 mg s.c. once daily for 5 days from day 9, dose 0: 10): 10
Inhibition of arthritis (adjuvant arthritis [1]; rat, in vivo): yes
Arthritis score (day 60) (adjuvant arthritis [1]; rat, in vivo, sc): 0
Partial thromboplastin time [2]: no change in the partial thromboplastin time
Ear swelling (DTH reaction; OX challenge no, no heparin 9 ± 1.0): 8 ± 1.0 ×10^-4 inch
Ear swelling (DTH reaction; OX challenge yes, no heparin 22 ± 3.4): 20.4 ± 1.6 ×10^-4 inch
Anti-coagulant effect (prothrombin time) [3]: increase in the prothrombin time
Early renal allograft function and graft survival (renal allograft): no effect on early graft function or graft survival
Severity of rat adjuvant arthritis (adjuvant arthritis [4]): enhanced the severity of the rat adjuvant arthritis
EAE clinical score (FIG. 3) ([5]; 0.02 mg daily s.c. (0.1 mg/kg), from 1 day before T lymphocyte inoculation): inhibits EAE
Day of onset of EAE ([5]; B: T cell line, None 5.0): 6.5
Duration of EAE ([5]; B: T cell line, None 5.5): 3.6 days
% incidence of EAE ([5]; B: T cell line): 20%
Clinical score of EAE ([5]; B: T cell line): 1.0
Day of onset of EAE ([5]; D: primed lymph node cells, None 4.0): 6.3
Duration of EAE ([5]; D: primed lymph node cells, None 5.3): 4.0 days
% incidence of EAE ([5]; D: primed lymph node cells): 75%
Clinical score of EAE ([5]; D: primed lymph node cells): 1.5
Heparanase activity of I-LNC (FIG. 7) (heparanase): lacked heparanase activity
Maximal survival of skin allograft (skin allografts): 32 days
Clinical improvement of severe rheumatoid arthritis (rheumatoid arthritis): all 3 were improved
Emigration of lymphocytes from the circulation (lymphocytes): inhibit the emigration of lymphocytes from the circulation
Effect on the DTH response (FIG. 9) (DTH skin response): did not have a significant inhibitory effect
Extent of induration (DTH skin response): decreased similarly
Mean diameter of erythema to mumps during treatment (DTH skin response): 13.6 mm
Mean diameter of erythema to tetanus toxoid during treatment (DTH skin response): 16.8 mm
Reversibility of the effect on the DTH response (FIG. 9) (DTH skin response): transient
Volunteers with significantly decreased DTH response to mumps (DTH skin response; sc): 11/12
Volunteers with significantly decreased DTH response to tetanus (DTH skin response; sc): 10/12
